Patent publication US20080139664A1, “ANTI-GLYCATION AGENTS FOR PREVENTING AGE-, DIABETES-, AND SMOKING-RELATED COMPLICATIONS” (NATIONAL RESEARCH COUNCIL OF CANADA, priority 2001, published 2008)
Where a name gives a salt, the structure may show the parent alone. Read-outs that look alike come from different tables or passages of the source. Each block holds one compound with its values, some of them ahead of it.

Assays:
[1] = system: bovine serum albumin (BSA); assay: Fluorescamine assay of free primary amino groups of BSA incubated with D-ribose; format: biochemical; conditions: free primary amino group on BSA after 5 days at 37° C.; agent at 16.8 times IC50; 64% without agent
Description: Fluorescamine assay (Yeboah F. et al., J. Agric. Food Chem. 48, 2766-2774 (2000)) was performed on incubated mixtures of BSA and D-ribose, with or without the identified anti-glycation agents. The mixtures contained BSA (0.075 mM protein concentration or 4.53 mM of Lys residue concentration) and D-ribose (50 mM). […] The fluorescamine assay determines the number of free lysine residues of BSA. In this experiment, the final volume of the incubation mixtures was 10 mL and the incubation time was 5 days at 37° C. Prior to the fluorescamine assay, the proteins were isolated by reverse phase HPLC. The protein content was determined using the Bio-Rad protein determination reagent (Bradford method). The fluorescamine assay was done in triplicate.

[2] = system: bovine serum albumin (BSA)
lysozyme = assay: ESI-MS of lysozyme glycoforms after incubation with D-ribose; conditions: 37° C., 5 days; for Peak area as % of total area of all glycoforms, 14,569: lysozyme + 2D-ribose − 2H2O (14,569 Da); for Peak area as % of total area of all glycoforms, 14,551: lysozyme + 2D-ribose − 3H2O (14,551 Da); for Peak area as % of total area of all glycoforms, 14,533: lysozyme + 2D-ribose − 5H2O (14,533 Da); for Peak area as % of total area of all glycoforms, 14,515: lysozyme + 2D-ribose − 6H2O (14,515 Da); for Peak area as % of total area of all glycoforms, 14,419: lysozyme + D-ribose − 2H2O (14,419 Da); for Peak area as % of total area of all glycoforms, 14,401: lysozyme + D-ribose − 3H2O (14,401 Da); for Peak area as % of total area of all glycoforms, 14,437: lysozyme + D-ribose − H2O (14,437 Da); for Peak area as % of total area of all glycoforms, 14,496: lysozyme + D-ribose − H2O with one carboxymethylated Lys residue (14,496 Da); for Peak area as % of total area of all glycoforms, 14,364: lysozyme with one carboxymethylated Lys residue (14,364 Da); for Peak area as % of total area of all glycoforms, 14,305: unmodified lysozyme (14,305 Da);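 as to all read-outs here: lysozyme incubated with D-ribose, with or without anti-glycation agents, then separated by reversed-phase HPLC and analysed by electrospray mass spectrometry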
[3] = system: bovine serum albumin (BSA); assay: Maillard fluorescence-based assay of AGEs formation, IC50 determination (BSA + D-ribose); conditions: for IC50: inhibition of Maillard fluorescence development, 0.075 mM BSA, 50 mM D-ribose, 37° C., 5 days

Structure (SMILES): Oc1ccc(CC2NCCc3cc(O)c(O)cc32)cc1O (racemic) [(±)-Tetrahydropapaveroline]
- Unreacted amino group [1]: 51%
- IC50 [2]: 90 µM
- Peak area as % of total area of all glycoforms, 14,569 (lysozyme): 2.3%
- Peak area as % of total area of all glycoforms, 14,551 (lysozyme): 0.7%
- Peak area as % of total area of all glycoforms, 14,533 (lysozyme): 0.8%
- Peak area as % of total area of all glycoforms, 14,515 (lysozyme): 0.0%
- Peak area as % of total area of all glycoforms, 14,419 (lysozyme): 2.8%
- Peak area as % of total area of all glycoforms, 14,401 (lysozyme): 2.1%
- Peak area as % of total area of all glycoforms, 14,437 (lysozyme): 17.6%
- Peak area as % of total area of all glycoforms, 14,496 (lysozyme): 0.9%
- Peak area as % of total area of all glycoforms, 14,364 (lysozyme): 3.9%
- Peak area as % of total area of all glycoforms, 14,305 (lysozyme): 68.9%

Structure (SMILES): O=[N+]([O-])c1cc(I)c(O)c(I)c1 [2,6-Diiodo-4-nitrophenol]
- IC50 [3]: 1300 µM

- IC50 [3]: 810 µM
Structure (SMILES): Nc1ncc([N+](=O)[O-])cn1 [2-Amino-5-nitropyrimidine]
- Peak area as % of total area of all glycoforms, 14,569 (lysozyme): 4.7%
- Peak area as % of total area of all glycoforms, 14,551 (lysozyme): 3.8%
- Peak area as % of total area of all glycoforms, 14,533 (lysozyme): 2.0%
- Peak area as % of total area of all glycoforms, 14,515 (lysozyme): 0.9%
- Peak area as % of total area of all glycoforms, 14,419 (lysozyme): 7.7%
- Peak area as % of total area of all glycoforms, 14,401 (lysozyme): 0.0%
- Peak area as % of total area of all glycoforms, 14,437 (lysozyme): 23.0%
- Peak area as % of total area of all glycoforms, 14,496 (lysozyme): 0.0%
- Peak area as % of total area of all glycoforms, 14,364 (lysozyme): 3.6%
- Peak area as % of total area of all glycoforms, 14,305 (lysozyme): 52.9%

Structure (SMILES): O=[N+]([O-])c1ncc[nH]1 [2-Nitroimidazole]
- IC50 [3]: > 4000 µM

- IC50 [3]: 1800 µM
Structure (SMILES): O=c1c(O)c(-c2ccc(O)c(O)c2)oc2ccccc12 [3,3′,4′-Trihydroxyflavone]

Structure (SMILES): COCC(N)c1ccc(O)c(O)c1 (stereo not drawn) [3,4-Dihydroxy-1-[(α-amino-β-methoxy)ethyl]benzene]
- IC50 [3]: 78 µM

- IC50 [3]: 350 µM
Structure (SMILES): CC(CCc1ccccc1)NC(CO)c1ccc(O)c(O)c1 (stereo not drawn) [3,4-Dihydroxy-1-[α-(1-methyl-3-phenyl-propylamino)-β-hydroxyethyl]benzene hydrochloride]

- IC50 [3]: 78 µM
Structure (SMILES): COC(CNC(C)C)c1ccc(O)c(O)c1 (stereo not drawn) [3,4-Dihydroxy-1-[α-isopropylamino-β-methoxy)ethyl]benzene]

Structure (SMILES): N[C@@H](Cc1cc(I)c(O)c(I)c1)C(=O)O [3,5-Diiodo-L-tyrosine]
- IC50 [3]: 1500 µM

Structure (SMILES): NC(=O)c1cc([N+](=O)[O-])cc([N+](=O)[O-])c1 [3,5-Dinitrobenzamide]
- IC50 [3]: 780 µM

- IC50 [3]: 2600 µM
Structure (SMILES): O=c1cc(-c2ccc(O)c(O)c2)oc2ccccc12 [3′.4′-Dihydroxyflavone]

Structure (SMILES): Nc1ccc(C(=O)O)c(O)c1 [4-Amino-salicylic acid]
- IC50 [3]: > 4000 µM

- IC50 [3]: > 4000 µM
Structure (SMILES): O=c1cc(-c2ccc(O)c(O)c2)oc2ccc(O)cc12 [6,3′,4′-Trihydroxyflavone]
- Peak area as % of total area of all glycoforms, 14,569 (lysozyme): 4.0%
- Peak area as % of total area of all glycoforms, 14,551 (lysozyme): 4.0%
- Peak area as % of total area of all glycoforms, 14,533 (lysozyme): 1.6%
- Peak area as % of total area of all glycoforms, 14,515 (lysozyme): 0.6%
- Peak area as % of total area of all glycoforms, 14,419 (lysozyme): 8.8%
- Peak area as % of total area of all glycoforms, 14,401 (lysozyme): 0.3%
- Peak area as % of total area of all glycoforms, 14,437 (lysozyme): 21.5%
- Peak area as % of total area of all glycoforms, 14,496 (lysozyme): 0.0%
- Peak area as % of total area of all glycoforms, 14,364 (lysozyme): 2.0%
- Peak area as % of total area of all glycoforms, 14,305 (lysozyme): 56.4%

- IC50 [3]: 940 µM
Structure (SMILES): O=c1cc(-c2cccc(O)c2)oc2cc(O)c(O)cc12 [6,7,3′-Trihydroxyflavone]

Structure (SMILES): NCCc1cc(O)c(O)cc1O [6-Hydroxydopamine]
- maximum percentage of the inhibition ([3]; Maillard fluorescence, listed if significantly lower than 100%): 65%)
- IC50 [3]: 95 µM

- IC50 [3]: 510 µM
Structure (SMILES): COc1ccc(-c2cc(=O)c3c(O)cc(O)cc3o2)cc1 [Acacetin]

Structure (SMILES): CC[C@@]1(O)C[C@H](O[C@H]2C[C@H](N(C)C)[C@H](O[C@H]3C[C@H](O)[C@H](O[C@H]4CCC(=O)[C@H](C)O4)[C@H](C)O3)[C@H](C)O2)c2c(cc3c(c2O)C(=O)c2c(O)cccc2C3=O)[C@H]1C(=O)OC [Aclarubicin]
- IC50 [3]: 2500 µM

- IC50 [3]: 350 µM
Structure (SMILES): NC(=O)c1ccc([N+](=O)[O-])cc1Cl [Aklomide]

- IC50 [3]: 82 µM
Structure (SMILES): CC(=O)Nc1ncc([N+](=O)[O-])s1 [Aminitrozole]

Structure (SMILES): COc1ccc(O)c(C(C)(C)C)c1 [BHA]
- IC50 [3]: > 4000 µM

Structure (SMILES): COc1ccc(-c2coc3cc(O)cc(O)c3c2=O)cc1 [Biochanin A]
- IC50 [3]: 290 µM

- IC50 [3]: 170 µM
Structure (SMILES): Cc1cc2c(OCC(CNC(C)(C)C)OC(=O)c3ccccc3)cccc2[nH]1 (stereo not shown) [Bopindolol]

- IC50 [3]: 3500 µM
Structure (SMILES): CN1CC(O)C2=C/C(=N/NC(N)=O)C(=O)C=C21 (stereo not shown) [Carbazochrome]
